In the assay the test system is MV-4-11 cells. As to the kind of experiment: Gene expression microarray analysis (Affymetrix PrimeView) and GSEA. It counts as cell-based, human. Details: RFU PODN (11730768_x_at) / Fold change /veh PODN (11730768_x_at) / RFU LINC00158 (11744669_a_at) / Fold change /veh LINC00158 (11744669_a_at) / RFU DUSP10 (11751237_a_at) / Fold change /veh DUSP10 (11751237_a_at) / RFU ID3 (11757404_x_at) / Fold change /veh ID3 (11757404_x_at) / RFU PLEKHG5 (11737974_s_at) / Fold change /veh PLEKHG5 (11737974_s_at) / RFU LRRC4B (11730491_at) / Fold change /veh LRRC4B (11730491_at) / RFU GIMAP4 (11747438_a_at) / Fold change /veh GIMAP4 (11747438_a_at) / RFU KRT8 (11758183_x_at) / Fold change /veh KRT8 (11758183_x_at) / RFU CNN1 (11734310_a_at) / Fold change /veh CNN1 (11734310_a_at) / RFU VPS37D (11726825_at) / Fold change /veh VPS37D (11726825_at) / RFU C10orf10 (11716522_x_at) / Fold change /veh C10orf10 (11716522_x_at) / RFU KIR2DL2 /// KIR2DL4 /// KIR2DL5A /// KIR2DL5B /// KIR2DS1 /// KIR2DS2 /// KIR2DS3 /// KIR2DS4 /// KIR3DL3 /// KIR3DL3 /// KIR3DS1 (11738374_at) / Fold change /veh KIR2DL2 /// KIR2DL4 /// KIR2DL5A /// KIR2DL5B /// KIR2DS1 /// KIR2DS2 /// KIR2DS3 /// KIR2DS4 /// KIR3DL3 /// KIR3DL3 /// KIR3DS1 (11738374_at) / RFU C1QL1 (11718748_at) / Fold change /veh C1QL1 (11718748_at) / RFU TMPRSS4 (11747572_a_at) / Fold change /veh TMPRSS4 (11747572_a_at) / RFU HAMP (11756126_x_at) / Fold change /veh HAMP (11756126_x_at) / RFU RNFT2 (11725882_a_at) / Fold change /veh RNFT2 (11725882_a_at) / RFU NR4A2 (11747474_a_at) / Fold change /veh NR4A2 (11747474_a_at) / RFU ABCC12 (11746883_a_at) / Fold change /veh ABCC12 (11746883_a_at) / RFU TMEM136 (11760407_x_at) / Fold change /veh TMEM136 (11760407_x_at) / RFU CLDN22 /// WWC2 (11732394_at) / Fold change /veh CLDN22 /// WWC2 (11732394_at) / RFU HLA-DPB1 (11760878_x_at) / Fold change /veh HLA-DPB1 (11760878_x_at) / RFU SPINT1 (11716480_a_at) / Fold change /veh SPINT1 (11716480_a_at) / RFU GAP43 (11754022_s_at) / Fold change /veh GAP43 (11754022_s_at) / RFU A4GNT (11735810_at) / Fold change /veh A4GNT (11735810_at) / RFU PRB3 (11715151_x_at) / Fold change /veh PRB3 (11715151_x_at) / RFU TUBB4B (11761932_at) / Fold change /veh TUBB4B (11761932_at) / RFU CAPN14 (11732068_a_at) / Fold change /veh CAPN14 (11732068_a_at) / RFU TMCC2 (11721928_a_at) / Fold change /veh TMCC2 (11721928_a_at) / RFU IRGQ (11745062_a_at) / Fold change /veh IRGQ (11745062_a_at) / RFU FAM174B (11720279_a_at) / Fold change /veh FAM174B (11720279_a_at) / RFU TMPRSS4 (11748680_a_at) / Fold change /veh TMPRSS4 (11748680_a_at) / RFU FAM212B (11763350_a_at) / Fold change /veh FAM212B (11763350_a_at) / RFU PLEKHG5 (11743358_a_at) / Fold change /veh PLEKHG5 (11743358_a_at) / RFU ZSCAN30 (11745921_a_at) / Fold change /veh ZSCAN30 (11745921_a_at) / RFU CMKLR1 (11741424_a_at) / Fold change /veh CMKLR1 (11741424_a_at) / RFU LOC101060620 /// MAPK8IP1 (11723275_at) / Fold change /veh LOC101060620 /// MAPK8IP1 (11723275_at) / RFU SPTSSB (11747773_x_at) / Fold change /veh SPTSSB (11747773_x_at) / RFU PRSS12 (11739890_at) / Fold change /veh PRSS12 (11739890_at) / RFU BIN1 (11741810_x_at) / Fold change /veh BIN1 (11741810_x_at) / RFU WNT11 (11732464_a_at) / Fold change /veh WNT11 (11732464_a_at) / RFU C10orf10 (11716521_a_at) / Fold change /veh C10orf10 (11716521_a_at) / RFU C5orf56 (11738089_at) / Fold change /veh C5orf56 (11738089_at) / RFU CYB561 (11721691_x_at) / Fold change /veh CYB561 (11721691_x_at) / RFU ANKRD19P (11752326_a_at) / Fold change /veh ANKRD19P (11752326_a_at) / RFU OR2T12 /// OR2T33 /// OR2T8 (11738714_s_at) / Fold change /veh OR2T12 /// OR2T33 /// OR2T8 (11738714_s_at) / RFU VCAN (11748164_a_at) / Fold change /veh VCAN (11748164_a_at) / RFU JSRP1 (11732532_at) / Fold change /veh JSRP1 (11732532_at) / RFU KRTAP10-11 (11738290_x_at) / Fold change /veh KRTAP10-11 (11738290_x_at) / RFU MYO3A (11730013_a_at) / Fold change /veh MYO3A (11730013_a_at) / RFU EBF3 (11725865_a_at) / Fold change /veh EBF3 (11725865_a_at) / RFU CAMK2N1 (11719241_x_at) / Fold change /veh CAMK2N1 (11719241_x_at) / RFU C5orf56 (11738088_a_at) / Fold change /veh C5orf56 (11738088_a_at) / RFU OLFML3 (11715873_a_at) / Fold change /veh OLFML3 (11715873_a_at) / RFU LOC100653217 /// NTM (11731650_a_at) / Fold change /veh LOC100653217 /// NTM (11731650_a_at) / RFU MAPK11 (11762145_a_at) / Fold change /veh MAPK11 (11762145_a_at) / RFU FIZ1 (11724087_x_at) / Fold change /veh FIZ1 (11724087_x_at) / RFU OASL (11726364_x_at) / Fold change /veh OASL (11726364_x_at) / RFU SOX15 (11748057_x_at) / Fold change /veh SOX15 (11748057_x_at) / RFU CD79A (11719716_a_at) / Fold change /veh CD79A (11719716_a_at) / RFU HIST1H1D (11736915_at) / Fold change /veh HIST1H1D (11736915_at) / RFU CASKIN2 (11723855_a_at) / Fold change /veh CASKIN2 (11723855_a_at) / RFU LOC730098 (11760151_x_at) / Fold change /veh LOC730098 (11760151_x_at) / RFU OR4N2 (11742367_at) / Fold change /veh OR4N2 (11742367_at) / RFU PRRT2 (11749266_a_at) / Fold change /veh PRRT2 (11749266_a_at) / RFU SNX32 (11753110_a_at) / Fold change /veh SNX32 (11753110_a_at) / RFU CDHR5 (11726645_a_at) / Fold change /veh CDHR5 (11726645_a_at) / RFU RCAN1 (11760418_a_at) / Fold change /veh RCAN1 (11760418_a_at) / RFU FAM167A (11723789_a_at) / Fold change /veh FAM167A (11723789_a_at) / RFU FAM26E (11764081_at) / Fold change /veh FAM26E (11764081_at) / RFU ISYNA1 (11749810_s_at) / Fold change /veh ISYNA1 (11749810_s_at) / RFU ACY1 (11761880_at) / Fold change /veh ACY1 (11761880_at) / RFU 11764098_at / Fold change /veh 11764098_at / RFU SAMD14 (11745864_x_at) / Fold change /veh SAMD14 (11745864_x_at) / RFU NPB (11741838_a_at) / Fold change /veh NPB (11741838_a_at) / RFU TMPRSS6 (11731388_a_at) / Fold change /veh TMPRSS6 (11731388_a_at) / RFU KRTAP10-2 (11738614_at) / Fold change /veh KRTAP10-2 (11738614_at) / RFU ARHGAP8 /// PRR5-ARHGAP8 (11727945_x_at) / Fold change /veh ARHGAP8 /// PRR5-ARHGAP8 (11727945_x_at) / RFU KRTAP5-7 /// NADSYN1 (11734609_at) / Fold change /veh KRTAP5-7 /// NADSYN1 (11734609_at) / RFU RASL12 (11751679_a_at) / Fold change /veh RASL12 (11751679_a_at) / RFU CDKN2B (11736163_a_at) / Fold change /veh CDKN2B (11736163_a_at) / RFU PRF1 (11729649_at) / Fold change /veh PRF1 (11729649_at) / RFU, ZNF638 /// ZNF638-IT1 / Fold change vs veh, ZNF638 /// ZNF638-IT1 / RFU, PANK3 / Fold change vs veh, PANK3 / RFU, SH3YL1 / Fold change vs veh, SH3YL1 / RFU, ZEB2 / Fold change vs veh, ZEB2 / RFU, NRIP1 / Fold change vs veh, NRIP1 / RFU, PTTG1IP / Fold change vs veh, PTTG1IP / RFU, CAPN2 / Fold change vs veh, CAPN2 / RFU, MED14 / Fold change vs veh, MED14 / RFU, SNORA58 / Fold change vs veh, SNORA58 / RFU, C1orf63 / Fold change vs veh, C1orf63 / RFU, LRRFIP1 / Fold change vs veh, LRRFIP1 / RFU, NDUFAF7 / Fold change vs veh, NDUFAF7 / RFU, SLC12A2 / Fold change vs veh, SLC12A2 / RFU, IBTK / Fold change vs veh, IBTK / RFU, ESF1 / Fold change vs veh, ESF1 / Fold change vs veh, TMEM50B / RFU, TAOK1 / Fold change vs veh, TAOK1 / RFU, ACBD3 / Fold change vs veh, ACBD3 / RFU, TMA16 / Fold change vs veh, TMA16 / RFU, RWDD3 / Fold change vs veh, RWDD3 / RFU, BCAT1 / Fold change vs veh, BCAT1 / RFU, EDEM3 / Fold change vs veh, EDEM3 / RFU, TMEM33 / Fold change vs veh, TMEM33 / RFU, WDR75 / Fold change vs veh, WDR75 / RFU, AHCTF1 / Fold change vs veh, AHCTF1 / RFU, TFRC / Fold change vs veh, TFRC / RFU, ZDHHC17 / Fold change vs veh, ZDHHC17 / RFU, NOM1 / Fold change vs veh, NOM1 / RFU, ARL8B / Fold change vs veh, ARL8B / RFU, ZBTB11 / Fold change vs veh, ZBTB11 / RFU, TAMM41 / Fold change vs veh, TAMM41 / RFU, KIAA1704 /// LOC100996395 / Fold change vs veh, KIAA1704 /// LOC100996395 / RFU, ING1 / Fold change vs veh, ING1 / RFU, TRMT61B / Fold change vs veh, TRMT61B / RFU, FUBP3 / Fold change vs veh, FUBP3 / RFU, TP53 / Fold change vs veh, TP53 / RFU, TNKS2 / Fold change vs veh, TNKS2 / RFU, ZFP14 / Fold change vs veh, ZFP14 / RFU, ACTR2 / Fold change vs veh, ACTR2 / RFU, PPP3R1 / Fold change vs veh, PPP3R1 / RFU, PIK3R1 / Fold change vs veh, PIK3R1 / RFU, HNRNPA1 / Fold change vs veh, HNRNPA1 / RFU, RNF170 / Fold change vs veh, RNF170 / RFU, ZNF28 / Fold change vs veh, ZNF28 / RFU, RNGTT / Fold change vs veh, RNGTT / RFU, OGT / Fold change vs veh, OGT / RFU, BRD1 / Fold change vs veh, BRD1 / RFU, MARS / Fold change vs veh, MARS / RFU, ZNF655 / Fold change vs veh, ZNF655 / RFU, FAHD1 / Fold change vs veh, FAHD1 / RFU, BDP1 / Fold change vs veh, BDP1 / RFU, LRRCC1 / Fold change vs veh, LRRCC1 / RFU, ARID1A / Fold change vs veh, ARID1A / RFU, ZNF146 / Fold change vs veh, ZNF146 / RFU, ZNF330 / Fold change vs veh, ZNF330 / RFU, GPN3 / Fold change vs veh, GPN3 / RFU, C9orf123 / Fold change vs veh, C9orf123 / RFU, N4BP2L2 / Fold change vs veh, N4BP2L2 / RFU, ARFIP1 / Fold change vs veh, ARFIP1 / RFU, FAM179B / Fold change vs veh, FAM179B / RFU, BCL10 / Fold change vs veh, BCL10 / RFU, UHRF1BP1L / Fold change vs veh, UHRF1BP1L / RFU, BET1 / Fold change vs veh, BET1 / RFU, CNOT2 / Fold change vs veh, CNOT2 / RFU, ZNF268 / Fold change vs veh, ZNF268 / Fold change vs veh, ZNF507 / RFU, DGCR2 / Fold change vs veh, DGCR2 / RFU, WDSUB1 / Fold change vs veh, WDSUB1 / Fold change vs veh, HSP90B1 /// MIR3652 / RFU, ADSS / Fold change vs veh, ADSS / RFU, GK / Fold change vs veh, GK / RFU, ZNF148 / Fold change vs veh, ZNF148 / RFU, TAF9 / Fold change vs veh, TAF9 / RFU, SLC1A5 / Fold change vs veh, SLC1A5 / RFU, SLMO2 / Fold change vs veh, SLMO2 / RFU, ABCC4 / Fold change vs veh, ABCC4 / RFU, LOC101060439 /// RAP1B / Fold change vs veh, LOC101060439 /// RAP1B / RFU, RFX7 / Fold change vs veh, RFX7 / RFU, GTPBP10 / Fold change vs veh, GTPBP10 / RFU, CNEP1R1 / Fold change vs veh, CNEP1R1 / RFU, BIVM-ERCC5 /// ERCC5 / Fold change vs veh, BIVM-ERCC5 /// ERCC5 / RFU, ILF3 / Fold change vs veh, ILF3 / RFU 11762660_at / Fold change /veh 11762660_at / RFU VCAN (11757783_s_at) / Fold change /veh VCAN (11757783_s_at) / RFU DDX43 (11728927_at) / Fold change /veh DDX43 (11728927_at) / RFU KRT8 (11758188_x_at) / Fold change /veh KRT8 (11758188_x_at) / RFU NKD1 (11759106_at) / Fold change /veh NKD1 (11759106_at) / RFU SRD5A1 (11742802_a_at) / Fold change /veh SRD5A1 (11742802_a_at) / RFU TPSAB1 /// TPSB2 (11721975_s_at) / Fold change /veh TPSAB1 /// TPSB2 (11721975_s_at) / RFU GSTM3 (11746129_a_at) / Fold change /veh GSTM3 (11746129_a_at) / RFU IL23R (11737362_x_at) / Fold change /veh IL23R (11737362_x_at) / RFU TMEM51 (11727254_a_at) / Fold change /veh TMEM51 (11727254_a_at) / RFU PIWIL2 (11732686_x_at) / Fold change /veh PIWIL2 (11732686_x_at) / RFU ORM1 (11744905_x_at) / Fold change /veh ORM1 (11744905_x_at) / RFU CCDC152 (11743942_at) / Fold change /veh CCDC152 (11743942_at) / RFU ECM1 (11717891_a_at) / Fold change /veh ECM1 (11717891_a_at) / RFU IL23R (11748794_a_at) / Fold change /veh IL23R (11748794_a_at) / RFU TNFAIP8L3 (11732012_x_at) / Fold change /veh TNFAIP8L3 (11732012_x_at) / RFU MBOAT4 (11741988_at) / Fold change /veh MBOAT4 (11741988_at) / RFU 11764193_at / Fold change /veh 11764193_at / RFU TMEM53 (11763286_at) / Fold change /veh TMEM53 (11763286_at) / RFU MAGEB2 (11727129_at) / Fold change /veh MAGEB2 (11727129_at) / RFU TMEM200A (11744735_a_at) / Fold change /veh TMEM200A (11744735_a_at) / RFU CCDC152 (11751479_a_at) / Fold change /veh CCDC152 (11751479_a_at) / RFU FAM211A (11726209_a_at) / Fold change /veh FAM211A (11726209_a_at) / RFU RGS16 (11746705_a_at) / Fold change /veh RGS16 (11746705_a_at) / RFU VCAN (11755009_s_at) / Fold change /veh VCAN (11755009_s_at) / RFU RHOB (11743442_s_at) / Fold change /veh RHOB (11743442_s_at) / RFU RGS16 (11720943_a_at) / Fold change /veh RGS16 (11720943_a_at) / RFU RGS16 (11720944_at) / Fold change /veh RGS16 (11720944_at) / RFU, VPS4B / Fold change vs veh, VPS4B / RFU, CREB1 / Fold change vs veh, CREB1 / RFU, DNAJC13 / Fold change vs veh, DNAJC13 / RFU, GNAQ / Fold change vs veh, GNAQ / RFU, CDK5R1 / Fold change vs veh, CDK5R1 / RFU, ZRANB3 / Fold change vs veh, ZRANB3 / RFU, CUL4A / Fold change vs veh, CUL4A / RFU, CCNY / Fold change vs veh, CCNY / RFU, UFL1 / Fold change vs veh, UFL1 / RFU, COG3 / Fold change vs veh, COG3 / RFU, DIAPH2 / Fold change vs veh, DIAPH2 / RFU, SKA2 / Fold change vs veh, SKA2 / RFU, AFF3 / Fold change vs veh, AFF3 / RFU, LMF1 / Fold change vs veh, LMF1 / RFU, IPO11 / Fold change vs veh, IPO11 / RFU, DFFB / Fold change vs veh, DFFB / RFU, FOXP1 / Fold change vs veh, FOXP1 / RFU, CARD8 / Fold change vs veh, CARD8 / RFU, STRN3 / Fold change vs veh, STRN3 / RFU, ADK / Fold change vs veh, ADK / RFU, RASSF2 / Fold change vs veh, RASSF2 / RFU, WIPF1 / Fold change vs veh, WIPF1 / RFU, LARP1B / Fold change vs veh, LARP1B / RFU, RASA1 / Fold change vs veh, RASA1 / RFU, RB1 / Fold change vs veh, RB1 / RFU, PPFIA1 / Fold change vs veh, PPFIA1 / RFU, MAT2A / Fold change vs veh, MAT2A / RFU, CCT5 / Fold change vs veh, CCT5 / RFU, WDR92 / Fold change vs veh, WDR92 / RFU, CUX1 / Fold change vs veh, CUX1 / RFU, TTC7A / Fold change vs veh, TTC7A / RFU, TMEM135 / Fold change vs veh, TMEM135 / RFU, DEPTOR / Fold change vs veh, DEPTOR / RFU, CPM / Fold change vs veh, CPM / RFU, DNAJB6 / Fold change vs veh, DNAJB6 / RFU, CACNA2D3 / Fold change vs veh, CACNA2D3 / RFU, DTX4 / Fold change vs veh, DTX4 / RFU, TFCP2 / Fold change vs veh, TFCP2 / RFU, GMCL1 /// GMCL1P1 / Fold change vs veh, GMCL1 /// GMCL1P1 / RFU, AEBP2 / Fold change vs veh, AEBP2 / RFU, SNHG1 /// SNORD22 /// SNORD25 /// SNORD26 /// SNORD27 /// SNORD28 /// SNORD29 /// SNORD31 / Fold change vs veh, SNHG1 /// SNORD22 /// SNORD25 /// SNORD26 /// SNORD27 /// SNORD28 /// SNORD29 /// SNORD31 / Fold change (Aza/veh), C12orf56 (ProbeSet 11735607_a_at) / Fold change (ACY-1035/veh), C12orf56 (ProbeSet 11735607_a_at) / Fold change (Aza/veh), FGFR1OP (ProbeSet 11751329_s_at) / Fold change (ACY-1035/veh), FGFR1OP (ProbeSet 11751329_s_at) / Fold change (Aza/veh), VPS36 (ProbeSet 11739960_a_at) / Fold change (ACY-1035/veh), VPS36 (ProbeSet 11739960_a_at) / RFU SYPL1 (11715823_x_at) / Fold change /veh SYPL1 (11715823_x_at) / RFU IGFBP7 (11715501_s_at) / Fold change /veh IGFBP7 (11715501_s_at) / RFU REEP3 (11722064_at) / Fold change /veh REEP3 (11722064_at) / RFU IGLL1 (11728026_x_at) / Fold change /veh IGLL1 (11728026_x_at): dose or concentration left out as unconfirmed. As to conditions: MV-4-11 cells, 48 hours.

For the molecule `Nc1ncn([C@@H]2O[C@H](CO)[C@@H](O)[C@H]2O)c(=O)n1` [azacitidine], the “Fold change /veh TMEM53 (11763286_at)” value was 1.48.

The values are drawn from article PMC5218480 (PLoS ONE, 2017).
